Measurements: US12473262B2, “Aryl hydrocarbon receptor activators” (Oregon State University, priority 2019, dated 2025)

Key:
[1] = target: aryl hydrocarbon receptor (AhR) (Mus musculus (Mouse), UniProt P30561); test: AhR ligand screening: AhRE-luciferase reporter in transfected Hepa1 cells; format: cell-based; settings: for Fold @ 1 nM: fold change of luciferase expression at 1 nM test compound relative to vehicle (0.1% DMSO); for Fold @ 100 nM: fold change of luciferase expression at 100 nM test compound relative to vehicle (0.1% DMSO); for Fold @ 10 uM: fold change of luciferase expression at 10 uM test compound relative to vehicle (0.1% DMSO); for Fold relative to benchmark @ 100 nM: luciferase expression at 100 nM test compound relative to 100 nM benchmark compound 11-cl-BBQ
Sequence of aryl hydrocarbon receptor (AhR) (P30561 10-805): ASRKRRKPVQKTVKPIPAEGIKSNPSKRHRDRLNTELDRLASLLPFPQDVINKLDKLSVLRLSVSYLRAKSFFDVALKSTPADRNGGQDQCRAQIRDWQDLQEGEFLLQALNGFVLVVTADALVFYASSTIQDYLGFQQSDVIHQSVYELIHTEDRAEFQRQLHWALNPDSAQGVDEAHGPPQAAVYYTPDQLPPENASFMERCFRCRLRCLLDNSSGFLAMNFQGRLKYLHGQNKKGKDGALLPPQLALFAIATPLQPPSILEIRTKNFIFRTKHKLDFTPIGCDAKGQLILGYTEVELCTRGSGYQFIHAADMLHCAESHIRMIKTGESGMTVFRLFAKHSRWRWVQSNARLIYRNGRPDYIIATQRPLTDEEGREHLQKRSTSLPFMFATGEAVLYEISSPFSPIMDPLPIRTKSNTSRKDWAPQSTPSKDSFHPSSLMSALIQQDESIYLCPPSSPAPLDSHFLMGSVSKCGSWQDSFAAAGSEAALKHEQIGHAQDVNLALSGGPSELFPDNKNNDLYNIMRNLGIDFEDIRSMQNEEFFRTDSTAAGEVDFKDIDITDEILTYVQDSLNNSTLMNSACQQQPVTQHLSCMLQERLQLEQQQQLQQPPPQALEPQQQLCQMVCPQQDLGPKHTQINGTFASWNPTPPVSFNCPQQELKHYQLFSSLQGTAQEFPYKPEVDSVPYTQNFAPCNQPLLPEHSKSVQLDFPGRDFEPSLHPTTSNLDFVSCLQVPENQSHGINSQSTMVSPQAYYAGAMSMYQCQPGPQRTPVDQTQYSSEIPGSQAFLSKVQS
Sequence of aryl hydrocarbon receptor (AhR) (P53762 whole entry partner): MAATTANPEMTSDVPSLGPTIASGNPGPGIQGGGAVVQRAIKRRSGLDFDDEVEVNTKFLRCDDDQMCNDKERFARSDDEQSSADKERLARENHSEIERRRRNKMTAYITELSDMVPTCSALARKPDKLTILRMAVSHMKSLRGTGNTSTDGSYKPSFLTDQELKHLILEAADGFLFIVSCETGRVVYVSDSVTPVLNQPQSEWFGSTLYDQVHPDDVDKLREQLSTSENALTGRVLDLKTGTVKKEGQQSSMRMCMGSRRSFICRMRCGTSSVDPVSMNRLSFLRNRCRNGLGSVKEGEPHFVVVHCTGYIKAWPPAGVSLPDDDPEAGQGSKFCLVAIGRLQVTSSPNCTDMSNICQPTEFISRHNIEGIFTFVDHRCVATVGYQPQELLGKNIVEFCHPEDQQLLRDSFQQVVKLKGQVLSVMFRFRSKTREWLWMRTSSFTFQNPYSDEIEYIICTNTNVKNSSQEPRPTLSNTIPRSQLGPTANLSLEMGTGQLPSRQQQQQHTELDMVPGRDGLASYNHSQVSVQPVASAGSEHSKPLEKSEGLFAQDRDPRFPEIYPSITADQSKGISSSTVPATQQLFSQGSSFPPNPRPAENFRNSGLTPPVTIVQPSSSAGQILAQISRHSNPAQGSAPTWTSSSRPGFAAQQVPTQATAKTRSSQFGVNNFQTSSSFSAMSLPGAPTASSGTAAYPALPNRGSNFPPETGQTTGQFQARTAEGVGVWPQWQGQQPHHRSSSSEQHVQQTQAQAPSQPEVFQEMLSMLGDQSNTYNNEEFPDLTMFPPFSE
Outline: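 Values are fold luciferase induction relative to vehicle (0.1% DMSO), read by luminometry of lysates from Hepa1 cells carrying an AhRE-driven luciferase reporter. Cells were seeded at 1×10^4 per well, grown overnight and treated with compound before lysis.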

CYP-1A2 = CYP-1A2 (Homo sapiens (Human), UniProt P05177); test: CYP panel profile: P450 inhibition, CYP-1A2; format: in vitro ADME; settings: human liver microsomes; read-out: CYP-1A2 IC50
Sequence of CYP-1A2 (P05177 whole entry): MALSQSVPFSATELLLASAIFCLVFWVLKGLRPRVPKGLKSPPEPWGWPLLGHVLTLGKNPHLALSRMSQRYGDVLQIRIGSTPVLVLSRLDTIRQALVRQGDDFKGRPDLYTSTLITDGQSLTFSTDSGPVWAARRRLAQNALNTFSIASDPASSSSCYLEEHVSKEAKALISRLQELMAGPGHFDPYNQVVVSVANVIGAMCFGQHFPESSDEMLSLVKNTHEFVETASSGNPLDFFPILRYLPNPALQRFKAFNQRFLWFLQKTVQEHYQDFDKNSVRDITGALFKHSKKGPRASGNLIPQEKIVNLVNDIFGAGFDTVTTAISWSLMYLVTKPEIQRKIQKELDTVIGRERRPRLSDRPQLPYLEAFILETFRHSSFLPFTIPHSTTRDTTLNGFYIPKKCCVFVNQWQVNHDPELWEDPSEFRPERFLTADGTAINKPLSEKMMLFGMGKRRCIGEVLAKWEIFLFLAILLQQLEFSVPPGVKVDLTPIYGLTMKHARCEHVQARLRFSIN
Experimental: (§1) 5. CYP Panel Profile: P450 Inhibition
(§2) From 10 mM stock solutions of test compounds, a dilution plate was prepared diluting serially starting from 5 mM up to 2 μM in Acetonitrile/DMSO or Methanol/DMSO Human liver Microsomes were added at required concentration as per specific CYP isoform in a deep well assay plate (1A2, 2C9, 2D6, 2B6, 2C8, 2C19, and 3A4). Compounds were spiked in all wells from dilution plate at final concentrations starting from 50 μM up to 0.02 μM, except for positive and negative control. Specific substrate were added to all wells and reactions were pre-incubated for 10 min. To start reactions, NADPH was added to all wells at 1 mM final concentration. Assay plate was mixed by vortexing and incubated at 37° C. for […] for 3A4.20 min for (1A2, 2C9, 2B6, 2C8, 2D6) and […] for 2C19. A quencher with chilled acetonitrile suitable internal standard was added. Samples were centrifuged and supernatants were collected and subjected to LC-MS/MS analysis for determination.

CYP-2C9 = CYP-2C9 (Homo sapiens (Human), UniProt P11712); test: CYP panel profile: P450 inhibition, CYP-2C9; format: in vitro ADME; settings: human liver microsomes
Sequence of CYP-2C9 (P11712 whole entry): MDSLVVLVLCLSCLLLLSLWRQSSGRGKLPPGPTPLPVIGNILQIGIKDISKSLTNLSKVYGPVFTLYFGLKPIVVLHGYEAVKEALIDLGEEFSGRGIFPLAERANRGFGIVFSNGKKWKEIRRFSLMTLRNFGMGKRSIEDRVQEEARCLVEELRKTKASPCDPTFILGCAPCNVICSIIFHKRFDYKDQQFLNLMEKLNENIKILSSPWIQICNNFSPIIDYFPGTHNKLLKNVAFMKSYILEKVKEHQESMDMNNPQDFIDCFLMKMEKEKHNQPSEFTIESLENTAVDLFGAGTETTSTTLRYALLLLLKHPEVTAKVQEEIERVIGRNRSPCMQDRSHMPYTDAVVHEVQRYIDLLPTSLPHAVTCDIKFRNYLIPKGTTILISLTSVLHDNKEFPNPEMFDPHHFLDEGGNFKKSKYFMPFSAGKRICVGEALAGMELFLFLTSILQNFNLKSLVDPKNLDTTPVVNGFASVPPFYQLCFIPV
Experimental: as §1, §2

CYP-2D6 = CYP-2D6 (Homo sapiens (Human), UniProt P10635); test: CYP panel profile: P450 inhibition, CYP-2D6; format: in vitro ADME; settings: human liver microsomes
Experimental: as §1, §2

CYP-2B6 = CYP-2B6 (Homo sapiens (Human), UniProt P20813); test: CYP panel profile: P450 inhibition, CYP-2B6; format: in vitro ADME; settings: human liver microsomes
Sequence of CYP-2B6 (P20813 whole entry): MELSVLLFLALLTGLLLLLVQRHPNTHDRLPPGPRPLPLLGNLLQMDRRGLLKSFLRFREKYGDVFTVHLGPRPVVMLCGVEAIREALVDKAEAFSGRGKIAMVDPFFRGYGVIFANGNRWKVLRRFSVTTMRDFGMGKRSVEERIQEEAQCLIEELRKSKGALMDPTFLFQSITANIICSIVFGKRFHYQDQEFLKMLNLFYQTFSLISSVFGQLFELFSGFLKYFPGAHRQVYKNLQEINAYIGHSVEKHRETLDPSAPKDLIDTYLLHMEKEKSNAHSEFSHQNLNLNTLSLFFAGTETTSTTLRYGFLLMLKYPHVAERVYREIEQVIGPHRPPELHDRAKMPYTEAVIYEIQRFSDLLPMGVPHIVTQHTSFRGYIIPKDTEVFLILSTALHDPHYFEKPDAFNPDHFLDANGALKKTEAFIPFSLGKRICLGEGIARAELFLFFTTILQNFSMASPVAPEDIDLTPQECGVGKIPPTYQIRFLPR
Experimental: as §1, §2

CYP-2C8 = CYP-2C8 (Homo sapiens (Human), UniProt P10632); test: CYP panel profile: P450 inhibition, CYP-2C8; format: in vitro ADME; settings: human liver microsomes
Sequence of CYP-2C8 (P10632 whole entry): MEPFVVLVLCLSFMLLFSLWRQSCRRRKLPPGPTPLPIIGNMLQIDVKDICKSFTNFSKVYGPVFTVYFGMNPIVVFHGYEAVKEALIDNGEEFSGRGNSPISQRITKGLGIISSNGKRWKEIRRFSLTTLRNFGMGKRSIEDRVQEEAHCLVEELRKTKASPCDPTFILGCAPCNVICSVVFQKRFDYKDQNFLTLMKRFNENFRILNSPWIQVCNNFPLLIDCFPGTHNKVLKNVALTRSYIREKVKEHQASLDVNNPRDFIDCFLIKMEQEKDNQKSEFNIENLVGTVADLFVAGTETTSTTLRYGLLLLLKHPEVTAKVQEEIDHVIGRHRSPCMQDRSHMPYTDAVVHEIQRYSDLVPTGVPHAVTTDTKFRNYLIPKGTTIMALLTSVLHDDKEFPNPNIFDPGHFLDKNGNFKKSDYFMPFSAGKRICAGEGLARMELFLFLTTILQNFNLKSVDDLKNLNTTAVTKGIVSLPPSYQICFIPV
Experimental: as §1, §2

CYP-2C19 = CYP-2C19 (Homo sapiens (Human), UniProt P33261); test: CYP panel profile: P450 inhibition, CYP-2C19; format: in vitro ADME; settings: human liver microsomes
Sequence of CYP-2C19 (P33261 whole entry): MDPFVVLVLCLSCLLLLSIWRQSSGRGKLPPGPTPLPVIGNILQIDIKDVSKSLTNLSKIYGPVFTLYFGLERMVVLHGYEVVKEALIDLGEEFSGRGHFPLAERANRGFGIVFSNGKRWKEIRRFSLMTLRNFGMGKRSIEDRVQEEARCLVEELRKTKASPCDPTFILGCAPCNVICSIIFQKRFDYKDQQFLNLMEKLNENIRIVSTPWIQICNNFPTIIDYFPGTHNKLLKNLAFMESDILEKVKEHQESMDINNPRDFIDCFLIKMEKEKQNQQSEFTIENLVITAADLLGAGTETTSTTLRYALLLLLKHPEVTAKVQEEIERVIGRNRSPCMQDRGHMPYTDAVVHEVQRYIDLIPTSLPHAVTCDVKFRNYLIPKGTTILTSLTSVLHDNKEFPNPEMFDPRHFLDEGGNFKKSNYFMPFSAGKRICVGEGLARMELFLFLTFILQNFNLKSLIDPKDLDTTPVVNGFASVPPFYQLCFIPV
Experimental: as §1, §2

CYP-3A4 = CYP-3A4 (Homo sapiens (Human), UniProt P08684); test: CYP panel profile: P450 inhibition, CYP-3A4; format: in vitro ADME; settings: human liver microsomes
Sequence of CYP-3A4 (P08684 whole entry): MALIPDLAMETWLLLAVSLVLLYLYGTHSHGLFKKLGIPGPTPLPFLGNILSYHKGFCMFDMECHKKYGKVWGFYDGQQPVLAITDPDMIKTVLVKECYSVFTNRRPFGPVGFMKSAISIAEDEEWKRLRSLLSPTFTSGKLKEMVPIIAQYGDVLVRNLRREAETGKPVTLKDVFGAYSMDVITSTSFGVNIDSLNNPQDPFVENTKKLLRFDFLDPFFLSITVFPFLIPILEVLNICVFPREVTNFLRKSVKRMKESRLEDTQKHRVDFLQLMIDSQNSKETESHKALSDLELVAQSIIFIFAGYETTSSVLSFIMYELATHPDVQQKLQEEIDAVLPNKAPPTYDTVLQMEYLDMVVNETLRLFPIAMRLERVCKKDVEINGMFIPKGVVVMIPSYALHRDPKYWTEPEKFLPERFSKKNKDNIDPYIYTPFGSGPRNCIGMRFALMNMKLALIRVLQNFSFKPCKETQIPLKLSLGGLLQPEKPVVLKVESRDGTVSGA
Experimental: as §1, §2

SMILES	Fold @ 1 nM [1] [fold]	Fold @ 100 nM [1] [fold]	Fold @ 10 uM [1] [fold]	Fold relative to benchmark @ 100 nM [1] [fold]	IC50 (CYP-1A2) [µM]	IC50 (CYP-2C9) [µM]	IC50 (CYP-2D6) [µM]	IC50 (CYP-2B6) [µM]	IC50 (CYP-2C8) [µM]	IC50 (CYP-2C19) [µM]	IC50 (CYP-3A4) [µM]
COc1ccc(C(=O)n2c(-c3cccc4ccccc34)nc3ccc(Cl)cc32)cc1 [Compound 536, (6-chloro-2-(naphthalen-1-yl)-1H-benzo[d]imidazol-1-yl)(4-methoxyphenyl)methanone]	1	39	41	0.98	0.6	4.8	> 50	16	17.1	2.6	1.7
O=C(c1ccc(F)cc1)n1c(-c2cccc3ccccc23)nc2cc(Cl)ccc21 [Compound 586]	7	20	18	1.33	1.7	7.9	> 50	22	9.1	7.1	1.3
O=C(c1ccc(F)cc1)n1c(-c2cccc3ccccc23)nc2ccc(Cl)cc21 [Compound 587]	2	16	19	1.07	0.4	5.3	26	11.6	3.2	6.7	6.3
O=C(c1ccccc1)n1c(-c2cccc3ccccc23)nc2cc(Cl)c(Cl)cc21 [Compound 693]	2	32	87	1.23	8.6	11.6	> 50	> 50	3.5	24.1	2
O=C(c1ccccc1)n1c(-c2cccc3ccccc23)nc2ccc(Cl)cc21 [Compound 495]	2.3	25	59	0.81	0.3	5.6	32.6	19.3	1.9	1.4	5.3
O=C(c1cccc2ccccc12)n1c(-c2cccc3ccccc23)nc2cc(Cl)ccc21 [Compound 704]	–	–	–	–	1.2	8.9	> 50	8.2	5.6	4.6	3.9
